Results published in a melting point compilation (Tetko et al.; mined from patent text by program, amines drawn as free bases though some values may be those of a salt).

| melting point [°C] | Compound |
| --- | --- |
| 58 to 60 | [N-]=[N+]=NCC1OC(n2cc(C=CBr)c(=O)[nH]c2=O)CC1Cl (stereo not given) |
| 86 | CN(C)C(=O)Sc1ccccc1C(=O)c1cccc(C#N)c1 |
| 182 to 184 | COc1ccc2cc(-c3ccc(S(C)(=O)=O)cc3)ccc2n1 |
| 196 to 197 | Cc1cc(C(=O)O)ccc1C#CCc1ccc2c(c1)C(C)(C)CCC2(C)C |
| 151 to 154 | O=C(O)C(=O)c1ccc(CCCOc2ccc3ccccc3c2)cc1 |
| 232 | COC1CSC2=C(SC1)C(OC(=O)N1CCN(C(=O)C(C)C)CC1)N(c1ccc3ccc(Cl)nc3n1)C2=O (stereo not given) |
| 152 to 153 | COc1cnc(NCCNCC(O)COc2ccccc2)c2ccccc12 (stereo not given) |
| 141 to 143 | CCCC1=C(C(=O)OCC)C(c2ccccc2Cl)c2cn(C(=O)OC)nc2N1 (stereo not given) |
| 126 to 128 | CCN(CC)CC(O)CNC(=O)c1c(OC)c2cc(C)ccc2n1-c1ccccc1 (stereo not given) |
| 54 to 55 | Cc1ccc(-c2cnccn2)cc1 |
| 266 to 267 | CCCCCCCCCCCC(=O)Nc1ccc2nc(S)[nH]c2c1 |
| 182 to 184 | CC(=O)NC[C@H]1CN(c2ccc(C3=CCOCC3)cc2)C(=O)O1 |
| 203 to 206 | O=Nc1c(-c2ccc(Cl)cc2)nc2sc3ccccc3n12 |
| 168 | Cc1c(C(F)(F)F)cnn(-c2ccc(Cl)c(C=C(Cl)C(=O)O)c2)c1=O |
| > 260 | O=C1c2cc(F)ccc2C(=O)c2c1nc1ccccn21 |
| 184 to 186 | CCOC(=O)c1cnc2c3cc(OC)ccc3ccn2c1=O |
| 78 to 82 | COc1cc2c(c(Cl)c1Cl)CCC2 |
| 174 to 176 | CCC(CC)OC(=O)c1ccc(C(=O)NS(=O)(=O)c2ccc(CCNC(=O)c3cc(OC)ccc3Cl)cc2)cn1 |
| 134 to 135 | C[C@H](CC#CC(C)(C)O)[C@H]1CCC[C@H]2[C@@H](O)CCC[C@]12C |
| 114 to 115 | CC(C)(C)n1nnc(N)n1 |
| 188 to 190 | Nc1nc(NC2CC2c2ccccc2)c2ncn(C3C=CC(CO)C3)c2n1 (stereo not given) |
| 161 to 163 | COc1ccc(C(=O)Nc2c(C)c(C)c3c(c2C)C(c2ccc(C)cc2)C(C)(C)O3)cc1 (stereo not given) |
| 135 | O=C(Cl)c1c2ccccc2nc2ccccc12 |
| 262 | NS(=O)(=O)c1ccc(-c2cc(-c3nc(-c4ccc(C(F)(F)F)nc4)cc(C(F)(F)F)n3)ccn2)s1 |

| melting point [°C] | Compound |
| --- | --- |
| 145 to 146 | Cc1c(C)c2c(c(C)c1NC(=O)NCCCCO)C(c1ccc(C(C)C)cc1)CO2 (stereo not given) |
| 263 | CC(C)S(=O)(=O)Nc1ccc2c(=O)c3c(sc2c1)CC(C)(C)CC3 |
| 80 to 85 | ClCCCCSc1ccncc1 |
| 144 to 146 | N#Cc1cc(-n2cccc2)cnc1Cl |
| 154 to 155 | CCc1ccc2c(c1)C(C(=O)O)c1ccccc1CO2 (stereo not given) |
| 178 to 180 | COc1cc(C(=O)c2csc(-c3ccncc3)n2)cc(OC)c1OC |
| 102 | O=S1CCON=C1c1ccc(Cl)s1 (stereo not given) |
| 134 to 136 | O=C1c2ccc(N3CCCCC3)c3cc(Br)cc(c23)C(=O)N1O |
| 245 to 247 | CCCc1[nH]c2cc(C(N)=O)ccc2c1C(=O)C1CCCCC1 |
| 135 | O=C(NCc1ccccc1-c1ccccc1C(=O)NCCc1ccccn1)c1ccccc1 |
| 124 to 125 | CCn1c([N+](=O)[O-])cnc1C=CN(C)C |
| 67 to 69 | COc1cc(C(C)=O)ccc1C1CCCCO1 (stereo not given) |
| 133 to 135 | COC(=O)c1ccc(Oc2cc3c(cc2C)C(C)(C)CCC3(C)C)cc1 |
| 90 to 92 | CCOC(=O)CCCCC(=O)Oc1cccc(-c2cn3c(n2)sc2ccccc23)c1 |
| 106 to 107 | O=C(CCS)N[C@@H](Cc1ccccc1)C(=O)O |
| 83 to 84 | CCOC(=O)CC=Cc1ccc2ccccc2c1O |
| 169 | N#Cc1ccc(NC(=S)NCc2ccncc2)cc1 |
| 81 to 82 | CCOC(=O)c1cnc2cc(Cl)ccc2c1Cl |
| 78 | CCCCN1CCC(c2c[nH]c3ccc(NS(C)(=O)=O)cc23)CC1 |
| 107 | Nc1ccc(C(=O)c2cccnc2)cc1 |
| 110 | CCOC(=O)c1ccc(NC=Nc2ccc3[nH]cc(CCN4C(=O)c5ccccc5C4=O)c3c2)cc1 |
| 174 to 175 | O=C1c2ccc(Br)cc2C(=O)N1c1ccc(Cl)cc1C(F)(F)F |
| 223 | Cc1cc(-c2cnn3c(C(F)(F)F)cc(-c4ccc(C(F)(F)F)c(C(F)(F)F)c4)nc23)ccn1 |
| 83 to 84 | O=C(OCC(=O)N1CCCC1=O)c1ccccc1 |

| melting point [°C] | Compound |
| --- | --- |
| 98 | CCN(CC)C(=O)c1[nH]c2ccccc2c1CN(Cc1cc(C(F)(F)F)cc(C(F)(F)F)c1)c1nnn(C)n1 |
| 247 to 248 | CC(C)(C)OC(=O)CNc1nccc(-c2nc(=O)c3ccccc3s2)n1 |
| 188 | Cc1c(C(=O)O)cnn1-c1ccc(Cl)c(Cl)c1 |
| 92 to 93 | CCC(O)(c1ccccc1)c1cccc(N)c1 (stereo not given) |
| 153 to 156 | CC(C)(C)NC(=O)[C@@H]1C[C@H](Cl)CN1C(=O)[C@@H](O)[C@H](Cc1ccccc1)NC(=O)[C@H](CC(N)=O)NC(=O)c1cnc2cc([N+](=O)[O-])ccc2n1 |
| 104 to 107 | N#CC1CCN(C(=O)c2ccc3nonc3c2)CC1 |
| 153 to 154 | O=C(CCc1nc(CCl)no1)c1ccc(-c2ccccc2)cc1 |
| 135 to 137 | CC(C)(C(=O)O)c1ccc(C(O)CCCN2CCC(=C3c4ccccc4CCc4ccccc43)CC2)cc1 (stereo not given) |
| 94 to 96 | CN(CCc1ccncc1)S(=O)(=O)C1CCCCC1 |
| 96 | CCOC(=O)C(C)OCc1cc2nc(C(F)(F)F)ccc2n1S(=O)(=O)c1ccc2ncsc2c1 (stereo not given) |
| 168 to 170 | N#Cc1cc(-c2ccoc2)c2ccc(OCc3cccc(-c4ccc(F)cc4)n3)cc2c1 |
| 132 to 133 | CCNC(=O)N(Cc1ccc(Cl)cc1)C1CC2CCC1C2 (stereo not given) |
| 258 to 260 | O=c1[nH]c2ncc(-c3ccc(-c4n[nH]c(CO)n4)cc3)nc2n1CC1CCOCC1 |
| 124 to 125 | CCOC(=O)c1c(-c2cccs2)nn(CC)c(=O)c1Nc1cccnc1 |
| 115 to 116 | CSc1nc(NS(=O)(=O)c2ccc(C(C)(C)C)cc2)c(-c2ccc(C)cc2)c(OCCOCc2ccccc2)n1 |
| 111 to 113 | CC(=O)c1c(O)cccc1OCC(O)COc1ccc(F)cc1 (stereo not given) |
| 212 to 213 | COc1ccc(-c2cc(N3CCOCC3)cc(=O)o2)cc1 |
| 42 to 43 | COc1ccc(CCCCCCCC(=O)O)cc1 |
| 208 | NC(=O)CCCCCNC(N)=O |
| 86 to 88 | c1cc(CN2CCCCC2)ccc1CN1CCCCC1 |
| 227 to 229 | Clc1ccc(Cn2c(-c3ccccn3)nc3ccccc32)cc1Cl |
| 165 to 167 | CC(=O)N(C)c1nc(-c2ccccc2)c(-c2ccc(=O)n(C(C)C)n2)s1 |
| 55 to 60 | NC(=O)C1=CN(CCCC(=O)NCCc2ccccc2)C=CC1 |
| 196 to 198 | Cn1cc(-c2ncc(-c3ccc4cc(OCC#N)ccc4c3)o2)c2ccccc21 |

| melting point [°C] | Compound |
| --- | --- |
| 198 | c1ccc(C2Cn3c(nc4cc5ccccc5cc43)S2)nc1 (stereo not given) |
| 94 to 96 | Cc1ccc(S(=O)(=O)On2nnc3ccc(Cl)cc32)cc1 |
| 225 to 227 | Cn1cc(-c2cccc(N3Cc4cc(C(C)(C)C)ccc4C3=O)c2CO)nc(Nc2ccc(N3CCOCC3)cc2)c1=O |
| 269 to 271 | O=C1CCC(N2Cc3c(OCc4ccc5ccccc5n4)cccc3C2=O)C(=O)N1 (stereo not given) |
| 184 to 185 | O=c1nc(-c2ccccc2)c2cc(Cl)ccc2n1CC(F)(F)F |
| 107 to 110 | CNC(=O)N1CCC(Oc2c(F)c(F)c(F)c(F)c2F)CC1 |
| 262 to 266 | Cc1cccc2c1c(N1CCOCC1)nc1c(-c3nc(C4CC4)no3)ncn12 |
| 173 to 174 | Cc1c(C(N)=O)c2ccccc2n2c(N3CCCC3)nc(-c3noc(C(C)C)n3)c12 |
| 52 to 65 | CCCCC(NC(=O)C1CC1(C)C)C(=O)OC(C)(C)C (racemic) |
| 88 | O=C(CCCCCBr)N1Cc2ccccc2C1 |
| 110 | O=C(O)C1C(=O)Nc2ccccc2SC1c1ccc2c(c1)OCO2 (mixture of isomers) |
| 172 to 173 | CC(C)(C)Cc1c(CC(C)(C)C(=O)O)n(Cc2ccc(Cl)cc2)c2ccc(OCc3ccc4occc4n3)cc12 |
| 167 to 169 | COc1nccnc1OCC(O)CN1CCC(N2CCc3ccccc3C2=O)CC1 (stereo not given) |
| 164 to 166 | CCC(=O)Nc1nnc2c3c(c(N4CCOCC4)nn12)CCCC3 |
| 139 to 141 | NC(=O)COc1cc(C(F)(F)F)cc(C(F)(F)F)c1 |
| 54 to 57 | Oc1ccc(CC2CO2)cc1 (racemic) |
| 228 to 230 | CC(C)C(NS(=O)(=O)c1ccc(Cl)cc1)C(=O)Nc1ccc(CC(=O)O)cc1 (racemic) |
| 93 to 96 | Cn1c(C(F)(F)F)cc(=O)n(-c2cc(OCC3CO3)c(Cl)cc2F)c1=O (stereo not given) |
| 118 to 120 | COc1ccc(C=C2C=CC(=O)O2)cc1 |
| 155 to 158 | CC(C)(Oc1ccc(CNc2ccc(Cl)cc2)cc1)C(=O)O |
| 171 to 173 | COc1cc(CN2CCN(C(=O)c3cc4ccccc4oc3=O)CC2)cc(OC)c1OC |
| 63.8 | O=C(Cl)N1CCC(N2CCCCC2)CC1 |

| Compound | melting point [°C] |
| --- | --- |
| COc1ccc2c(c1)N(CC1CN3CCC1CC3)c1ccccc1S2 (stereo not given) | 135 to 136 |
| CCOC(=O)c1ncn2c1CN(C)C(=O)c1ncccc1-2 | 252 to 254 |
| COC(=O)c1[nH]c(=O)n(C(=O)NCCCN2CCC(C(=O)OC)(c3ccccc3)CC2)c1-c1ccc(F)c(F)c1 | 134 to 136 |
| CC(C)(CS(C)(=O)=O)NC(=O)c1c(NC(=O)c2cc(C(F)(F)F)nn2-c2ncccc2Cl)c(Cl)cc2cn[nH]c12 | 173 to 176 |
| COc1ccc(NC(=O)OC2CN3CCC2CC3)cc1 (stereo not given) | 160 |
| CC(C)(C)CCCOC1CCC2C3C(=O)C=C4CC(O)CCC4(C)C3CCC12C (stereo not given) | 203 to 205 |
